{"source": "patent US9562899B2", "about": "“Method of detecting OXA-048 carbapenemase producing bacteria” (BIOMÉRIEUX, priority 2012, dated 2017)", "key": {"[1]": {"system": "Non-OXA-48 strains", "assay": "Prototype medium, strains detected (Example 3)", "type": "cell-based, Enterobacteriaceae", "details": "Non-OXA-48 deposit of 10^6 CFU; temocillin 300 mg/l; 24 hours", "procedure": "(§1) The media are prepared in 55 mm diameter Petri dishes. They are inoculated using a bacterial suspension in physiological saline at 0.5 McF for the non-OXA-48 strains and with a 1/100 and 1/10 000 dilution of a suspension at 0.5 McF for the OXA-48 strains. The inoculation consists of 3-quadrant streaking using a 10 μl calibrated loop: theoretical deposit of 10^4 or 10^2 CFU for the OXA-48 strains and of 10^6 CFU for the strains not producing OXA-48.\n(§2) The media are incubated at 37° C. The readings will be carried out after 18 and 24 hours of incubation.\n(§3) The growth density, the colony sizes and also the coloration (color and strength) are evaluated.\n(§4) Reaction medium identical to the base used for example 1. A selective system comprising a mixture of antibiotics and antifungals which is specific for Gram-positives, yeasts and Gram-negatives which are non-fermenting, and also cloxacillin and EDTA, is also added.\n(§5) A medium at 200 mg/l of temocillin is tested without selective system as indicated above."}, "[2]": {"system": "OXA-48 strains", "assay": "Prototype medium, strains detected (Example 3)", "type": "cell-based, Enterobacteriaceae", "details": "24 hours of incubation", "procedure": "as §1, §2, §3, §4, §5"}, "[3]": {"system": "KPC, AmpC and MBL strains", "details": "disk comprising 30 μg of temocillin; Rosco; cited from earlier work"}}, "data": [{"compound": "CO[C@@]1(NC(=O)C(C(=O)O)c2ccsc2)C(=O)N2[C@@H](C(=O)O)C(C)(C)S[C@@H]21", "note": "(some centres unmarked) [temocillin]", "values": [{"measurement": "No. of strains detected", "setting": "[1]", "result": "1/13"}, {"measurement": "No. of strains detected", "setting": "[2]; OXA-48 deposit of 10^2 CFU, temocillin 200 mg/l without selective system", "result": "15/15"}, {"measurement": "No. of strains detected", "setting": "[2]; OXA-48 deposit of 10^2 CFU, temocillin 200 mg/l", "result": "15/15"}, {"measurement": "No. of strains detected", "setting": "[2]; OXA-48 deposit of 10^2 CFU, temocillin 300 mg/l", "result": "15/15"}, {"measurement": "No. of strains detected", "setting": "[2]; OXA-48 deposit of 10^2 CFU, temocillin 500 mg/l", "result": "9/15"}, {"measurement": "No. of strains detected", "setting": "[2]; OXA-48 deposit of 10^4 CFU, temocillin 200 mg/l without selective system", "result": "15/15"}, {"measurement": "No. of strains detected", "setting": "[2]; OXA-48 deposit of 10^4 CFU, temocillin 200 mg/l", "result": "15/15"}, {"measurement": "No. of strains detected", "setting": "[2]; OXA-48 deposit of 10^4 CFU, temocillin 300 mg/l", "result": "15/15"}, {"measurement": "No. of strains detected", "setting": "[2]; OXA-48 deposit of 10^4 CFU, temocillin 400 mg/l", "result": "15/15"}, {"measurement": "No. of strains detected", "setting": "[2]; OXA-48 deposit of 10^4 CFU, temocillin 500 mg/l", "result": "12/15"}, {"measurement": "inhibition of strains by temocillin disk", "setting": "[3]", "result": "does not inhibit all KPC, AmpC and MBL strains"}]}]}
